# Laboratory results: publication PMC10820527, “Synthesis, Characterization, and Investigation of Anti-Inflammatory and Cytotoxic Activities of Novel Thiourea Derivatives of Naproxen” (Pharmaceutics, 2023)
# Columns and labels:
# [1] = tested on: healthy male rats; assay: Acute oral toxicity assessment (OECD Guidelines No. 423); type: in vivo, rat; conditions: single per os dose 10 mg/kg, sacrifice after 14 days, (absolute organ weight × 100%)/body weight
# Protocol: The acute oral toxicity was assessed in healthy male rats (n = 24, three rats per group, body weight 180–200 g) according to a previously established protocol and the OECD Guidelines No. 423 [37, 38].
# Animals were randomly assigned to the following groups: control group—rats that received single dose of 1% DMSO and experimental groups—rats that received compounds 8–14 per os in the single dose of 10 mg/kg dissolved in 1% DMSO. All rats were fasted prior to administration of compounds and during 3 h following the treatment.
# Afterwards, rats were kept in single cages and observed once daily during 14 days for clinical signs of toxicity. All behavioral changes and any signs of toxicity were recorded (fur and skin, urination (color), feces consistency, eyes, salivation, any alterations in behavior pattern). Additionally, food and water intake and the body weight were measured daily over 14 days. After accomplishing the monitoring period, rats were sacrificed, and organ weight (liver, kidney, stomach, and heart) was recorded. Relative organ weight was calculated as follows: (absolute organ weight × 100%)/body weight of rat on the day of sacrifice(1)
# [2] = tested on: carrageenan-induced rat paw edema; assay: Carrageenan-induced rat paw edema model; type: in vivo; conditions: for Rat Paw Thickness: mean ± SD; for inhibition in vivo at 2.5 mg/kg / inhibition in vivo at 5 mg/kg / inhibition in vivo at 10 mg/kg: Rattus norvegicus
# Protocol: The Carrageenan-induced rat paw edema model was used to assess the anti-inflammatory potential of novel compounds 8–14. Induction of inflammation was performed in all animals by intraplantar injection of […] 0.5% carrageenan saline into the left hind paw.
# Animals (n = 200) were randomly divided into the following groups: control groups, that received either 1% DMSO or naproxen, and experimental groups, that received the novel compounds 8–14.
# Control groups included DMSO and naproxen groups. Rats belonging to the DMSO group received 1% DMSO in the same volume as the compounds 8–14, 60 min before carrageenan injection. Moreover, naproxen groups included rats that were subjected to naproxen treatment in three doses: 2.5 mg/kg, 5 mg/kg, and 10 mg/kg. Naproxen was applied in the same manner as 1% DMSO.
# Experimental groups included rats that were treated with compounds 8–14 and they were divided into three subgroups depending on the applied dose: 2.5 mg/kg, 5 mg/kg, and 10 mg/kg. The examined compounds were dissolved in 1% DMSO prior to treatment and applied to rats 60 min before inducing inflammation, i.e., before carrageenan injection. Doses of naproxen and investigated compounds were defined based on our previously published research.
# In order to quantify the anti-inflammatory effects of the tested compounds, left paw thickness was measured at specific time points: prior to inflammation induction (moment 0) and 1, 2, 3, and 4 h (moments 1, 2, 3, and 4) following carrageenan injection. Tissue thickness was measured in the middle of the rat paw using a Digital Vernier caliper (Aerospace, China). The percentage of inhibition of paw edema after treatment with different agents was calculated according to the formula, Equation (2):% Inhibition = 100 × [1 − (Yt/Yc)](2) where Yt = average increase in paw thickness in the treated group of rats between two measurement moments, and Yc = average increase in paw thickness in the untreated group of rats between two measurement moments.
# [3] = 2.5 mg/kg, 1 h after carrageenan
# [4] = 2.5 mg/kg, 2 h after carrageenan
# [5] = 2.5 mg/kg, 3 h after carrageenan
# [6] = 2.5 mg/kg, 4 h after carrageenan
# [7] = 5.0 mg/kg, 1 h after carrageenan
# [8] = 5.0 mg/kg, 2 h after carrageenan
# [9] = 5.0 mg/kg, 3 h after carrageenan
# [10] = 5.0 mg/kg, 4 h after carrageenan
# [11] = 10.0 mg/kg, 1 h after carrageenan
# [12] = 10.0 mg/kg, 2 h after carrageenan
# [13] = 10.0 mg/kg, 3 h after carrageenan
# [14] = 10.0 mg/kg, 4 h after carrageenan
Structure (SMILES),"Relative organ weight, Heart [1]","Relative organ weight, Kidney [1]","Relative organ weight, Liver [1]","Relative organ weight, Stomach [1]","Rat Paw Thickness [2, 3]","Rat Paw Thickness [2, 4]","Rat Paw Thickness [2, 5]","Rat Paw Thickness [2, 6]","Rat Paw Thickness [2, 7]","Rat Paw Thickness [2, 8]","Rat Paw Thickness [2, 9]","Rat Paw Thickness [2, 10]","Rat Paw Thickness [2, 11]","Rat Paw Thickness [2, 12]","Rat Paw Thickness [2, 13]","Rat Paw Thickness [2, 14]","inhibition in vivo at 2.5 mg/kg ([2]; 2.5 mg/kg, 1 h)","inhibition in vivo at 2.5 mg/kg ([2]; 2.5 mg/kg, 2 h)","inhibition in vivo at 2.5 mg/kg ([2]; 2.5 mg/kg, 3 h)","inhibition in vivo at 2.5 mg/kg ([2]; 2.5 mg/kg, 4 h)",other results
"COC(=O)[C@H](Cc1ccccc1)NC(=S)NC(=O)[C@@H](C)c1ccc2cc(OC)ccc2c1 [Compound 13, Methyl (((S)-2-(6-methoxynaphthalen-2-yl)propanoyl)carbamothioyl)phenylalaninate]",0.30 ± 0.04,0.28 ± 0.06,3.09 ± 0.27,0.50 ± 0.06,7.0 ± 0.10 mm,6.60 ± 0.10 mm,6.13 ± 0.12 mm,5.83 ± 0.06 mm,6.90 ± 0.10 mm,6.43 ± 0.32 mm,5.90 ± 0.36 mm,5.47 ± 0.23 mm,6.77 ± 0.42 mm,6.40 ± 0.36 mm,6.10 ± 0.36 mm,5.80 ± 0.30 mm,6.12%,13.6%,22.5%,24.4%,"inhibition in vivo at 5 mg/kg ([2]; 5.0 mg/kg, 1 h): -0.68%; inhibition in vivo at 5 mg/kg ([2]; 5.0 mg/kg, 2 h): 9.09%; inhibition in vivo at 5 mg/kg ([2]; 5.0 mg/kg, 3 h): 20.7%; inhibition in vivo at 5 mg/kg ([2]; 5.0 mg/kg, 4 h): 31.1%; inhibition in vivo at 10 mg/kg ([2]; 10.0 mg/kg, 1 h): 19.7%; inhibition in vivo at 10 mg/kg ([2]; 10.0 mg/kg, 2 h): 27.3%; inhibition in vivo at 10 mg/kg ([2]; 10.0 mg/kg, 3 h): 29.7%; inhibition in vivo at 10 mg/kg ([2]; 10.0 mg/kg, 4 h): 33.3%"
"COc1ccc2cc([C@H](C)C(=O)NC(=S)Nc3ccc(C)cc3)ccc2c1 [Compound 9, (S)-2-(6-methoxynaphthalen-2-yl)-N-(p-tolylcarbamothioyl)propanamide]",0.29 ± 0.03,0.29 ± 0.03,3.01 ± 0.27,0.56 ± 0.03,6.60 ± 0.10 mm,6.33 ± 0.06 mm,5.97 ± 0.06 mm,5.70 ± 0.26 mm,6.53 ± 0.32 mm,6.23 ± 0.23 mm,5.90 ± 0.17 mm,5.50 ± 0.36 mm,6.20 ± 0.17 mm,5.83 ± 0.29 mm,5.33 ± 0.15 mm,5.05 ± 0.09 mm,25.2%,28.8%,35.1%,37.8%,"inhibition in vivo at 5 mg/kg ([2]; 5.0 mg/kg, 1 h): 22.4%; inhibition in vivo at 5 mg/kg ([2]; 5.0 mg/kg, 2 h): 27.3%; inhibition in vivo at 5 mg/kg ([2]; 5.0 mg/kg, 3 h): 31.5%; inhibition in vivo at 5 mg/kg ([2]; 5.0 mg/kg, 4 h): 42.2%; inhibition in vivo at 10 mg/kg ([2]; 10.0 mg/kg, 1 h): 22.4%; inhibition in vivo at 10 mg/kg ([2]; 10.0 mg/kg, 2 h): 30.3%; inhibition in vivo at 10 mg/kg ([2]; 10.0 mg/kg, 3 h): 44.1%; inhibition in vivo at 10 mg/kg ([2]; 10.0 mg/kg, 4 h): 50%"
